Measurements taken from ChEMBL document CHEMBL1152092, “A potent long-acting imidazole-5-acrylic acid angiotensin II AT-1 receptor antagonist” (Bioorg Med Chem Lett, 1994).

Assays:
[1] = biological target: T1, Type-1 angiotensin II receptor (Homo sapiens, UniProt P30556); assay: Tested for binding affinity to Angiotensin II receptor, type 1
T1 sequence (P30556 whole entry): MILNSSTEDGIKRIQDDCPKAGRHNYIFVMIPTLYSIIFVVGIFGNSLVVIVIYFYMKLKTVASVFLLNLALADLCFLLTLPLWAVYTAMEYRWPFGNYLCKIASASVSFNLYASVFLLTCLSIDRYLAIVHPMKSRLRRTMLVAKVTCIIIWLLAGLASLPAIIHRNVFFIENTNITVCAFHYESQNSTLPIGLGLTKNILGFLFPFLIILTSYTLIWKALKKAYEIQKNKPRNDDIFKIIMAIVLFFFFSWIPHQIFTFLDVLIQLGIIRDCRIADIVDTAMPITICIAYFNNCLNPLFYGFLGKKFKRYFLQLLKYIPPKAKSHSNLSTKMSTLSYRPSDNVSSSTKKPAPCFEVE

Oryctolagus cuniculus [2] = species: Oryctolagus cuniculus; assay: Tested for inhibition of AII-induced vasoconstriction of rabbit aorta; format: functional
Rattus norvegicus [3] = assay: Tested for the dose that produced a 50% inhibition of the pressor response to AII in conscious normotensive rats administered intraduodenally; format: functional; details: intraduodenal, read-out: ID50 (the source's name)
Rattus norvegicus [4] = assay: Tested for time for the pressor response to AII to recover 50% of its initial effect after intraduodenal dosing of 30 mg/kg; format: functional, organism-based; parameters: dose 30 mg/kg
Rattus norvegicus [5] = assay: Tested for the dose that produced a 50% inhibition of the pressor response to AII in conscious normotensive rats administered intravenously; format: functional; details: iv, read-out: ID50 (the source's name)
[6] = biological target: T2, Type-1 angiotensin II receptor B (Rattus norvegicus, UniProt P29089); assay: Tested for inhibition of [125I]- AII specific binding to rat mesenteric arteries, expressed as IC50
T2 sequence (P29089 whole entry): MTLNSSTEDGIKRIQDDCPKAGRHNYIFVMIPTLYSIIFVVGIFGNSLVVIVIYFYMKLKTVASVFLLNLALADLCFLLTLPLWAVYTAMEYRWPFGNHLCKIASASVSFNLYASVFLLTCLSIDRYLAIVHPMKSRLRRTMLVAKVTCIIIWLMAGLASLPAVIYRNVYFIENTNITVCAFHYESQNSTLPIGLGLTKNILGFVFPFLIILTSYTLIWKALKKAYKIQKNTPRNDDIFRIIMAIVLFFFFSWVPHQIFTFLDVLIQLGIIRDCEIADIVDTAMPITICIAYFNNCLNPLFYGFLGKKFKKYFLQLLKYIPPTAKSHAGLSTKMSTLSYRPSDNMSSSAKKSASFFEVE

Rattus norvegicus [7] = assay: Tested for time for the pressor response to AII to recover 50% of its initial effect after intraduodenal dosing of 10 mg/kg; format: functional, organism-based; parameters: dose 10 mg/kg
Rattus norvegicus [8] = species: Rattus norvegicus; assay: Time required for effect of drug after washout of rat adrenal cortical membranes; format: functional
Oryctolagus cuniculus [9] = species: Oryctolagus cuniculus; assay: Tested for inhibition of AII-induced vasoconstriction of rabbit aorta measured at 30% inhibition; format: functional
[10] = biological target: T1, Type-1 angiotensin II receptor; assay: Tested for Angiotensin II receptor, type 1 affinity in the absence of BSA
[11] = biological target: T1, Type-1 angiotensin II receptor; assay: Tested for Angiotensin II receptor, type 1 affinity in the presence of 0.25% BSA
Canis familiaris [12] = assay: Tested for po dose required to inhibit the pressor effect up to 20 hr in Angiotensin I infused dog; format: functional, Canis lupus familiaris
Canis familiaris [13] = assay: Tested for lowering of mean arterial blood pressure at a dose of 10 mg/kg id, in 2-kidney, 1-clip Goldblatt renin dependent hypertensive dog for more than 12 hours; format: functional, Canis lupus familiaris
Canis familiaris [14] = assay: Tested for po dose required to inhibit the pressor effect up to 14 hr in Angiotensin I infused dog; format: functional, Canis lupus familiaris
[15] = biological target: T1, Type-1 angiotensin II receptor; assay: Tested for Angiotensin II receptor, type 1 affinity in the absence of bovine serum albumin (BSA)
[16] = biological target: T1, Type-1 angiotensin II receptor; assay: Tested for Angiotensin II receptor, type 1 affinity in the presence of 0.25% bovine serum albumin (BSA)

Row | IC50 [6] [nM] | Structure (SMILES) | Kb (Oryctolagus cuniculus [2]) [nM] | ED50 (Rattus norvegicus [3]) [mg/kg] | ED50 (Rattus norvegicus [5]) [mg/kg] | T1/2 (Rattus norvegicus [7]) [h] | other results
1 | – | CCCCc1ncc(/C=C(\Cc2cccs2)C(=O)O)n1Cc1ccccc1 | – | – | – | – | IC50 [1]: 440 nM
2 | 1.04 | CCCCc1ncc(/C=C(\Cc2cccs2)C(=O)O)n1Cc1ccc(C(=O)O)c(Cl)c1 | 0.13 | 16 | 0.12 | – | T1/2 (Rattus norvegicus [4]): 1.8 h
3 | – | CCCCc1ncc(/C=C(\Cc2cccs2)C(=O)O)n1Cc1ccccc1Cl | – | – | – | – | IC50 [1]: 4530 nM
4 | 0.16 | CCCCc1ncc(/C=C(\Cc2cccs2)C(=O)O)n1Cc1ccc(C(=O)O)c(Cl)c1Cl | 0.18 | 5.4 | 0.04 | 1.6 | –
5 | 11.8 | CCCCc1ncc(/C=C(\Cc2cccs2)C(=O)O)n1Cc1ccc(C(=O)O)c2ccccc12 | – | 3.8 | 0.05 | 2.42 | TIME (Rattus norvegicus [8]): 3 h; Kb (Oryctolagus cuniculus [9]): 0.059 nM; IC50 [10]: 1.2 nM; IC50 [11]: 31 nM; Dose (Canis familiaris [12]): 10 mg/kg; Mean blood pressure (Canis familiaris [13]): 35 mmHg
6 | – | CCCCc1ncc(/C=C(\Cc2cccs2)C(=O)O)n1Cc1ccc(C(=O)O)cc1 [EPROSARTAN] | 0.21 | 5.5 | 0.08 | 1.42 | Dose (Canis familiaris [14]): 10 mg/kg; TIME (Rattus norvegicus [8]): 0.5 h; IC50 [15]: 2 nM; IC50 [16]: 7.3 nM; Mean blood pressure (Canis familiaris [13]): 35 mmHg
7 | 1.45 | CCCCc1ncc(/C=C(\Cc2cccs2)C(=O)O)n1Cc1ccc(C(=O)O)cc1Cl | 0.02 | 2.4 | 0.06 | 2.5 | –
8 | 35.4 | CCCCc1ncc(/C=C(\Cc2cccs2)C(=O)O)n1Cc1cc(Cl)c(C(=O)O)cc1Cl | 1.58 | – | 0.68 | – | –
